Data reported in ChEMBL document CHEMBL5303765, “Data for DCP probe BAY-7081” (2023).

What was measured:
[1] = target: Monoamine oxidase B (MAO-B) (Homo sapiens, UniProt P27338); test: Monoamine Oxidase MAO-B Eurofins Panlabs panel; details: compound concentration 10 uM
[2] = target: D(3) dopamine receptor (Homo sapiens) (UniProt P35462); test: Dopamine D3 Eurofins Panlabs panel; details: Compound concentration 10.0 uM
[3] = target: Nitric oxide synthase 1 (Rattus norvegicus) (UniProt P29476); test: Nitric Oxide Synthase, Neuronal (nNOS) Eurofins Panlabs panel; details: Compound concentration 10.0 uM
[4] = target: Alpha-1A adrenergic receptor (Rattus norvegicus) (UniProt P43140); test: Adrenergic alpha1A Eurofins Panlabs panel; details: Compound concentration 10.0 uM
[5] = target: Sodium-dependent serotonin transporter (Homo sapiens) (UniProt P31645); test: Transporter, Serotonin (5-Hydroxytryptamine) (SERT) Eurofins Panlabs panel; details: Compound concentration 10.0 uM
[6] = target: Muscarinic acetylcholine receptor M3 (Homo sapiens) (UniProt P20309); test: Muscarinic M3 Eurofins Panlabs panel; details: Compound concentration 10.0 uM
Phosphodiesterase 6 = test: 3H-cAMP and 3H-cGMP Scintillation Proximity Assay (PDE6); format: tissue-based, Bos taurus, retina
[7] = target: Dual 3',5'-cyclic-AMP and -GMP phosphodiesterase 11A (Homo sapiens, UniProt Q9HCR9); test: 3H-cAMP and 3H-cGMP Scintillation Proximity Assay (PDE11A)
[8] = target: Carbonic anhydrase 2 (Homo sapiens) (UniProt P00918); test: Carbonic Anhydrase II Eurofins Panlabs panel; details: Compound concentration 10.0 uM
[9] = target: Glutamate NMDA receptor (Rattus norvegicus) (UniProt P35439+Q00959+Q00960+Q00961+Q62645+Q8VHN2+Q9R1M7); test: Glutamate, NMDA, Glycine Eurofins Panlabs panel; format: protein-complex assay; details: Compound concentration 10.0 uM
[10] = target: Aldo-keto reductase family 1 member B1 (Rattus norvegicus) (UniProt P07943); test: Aldose Reductase Eurofins Panlabs panel; details: Compound concentration 10.0 uM
[11] = target: Cannabinoid receptor 2 (Homo sapiens) (UniProt P34972); test: Cannabinoid CB2 Eurofins Panlabs panel; details: Compound concentration 10.0 uM
[12] = target: 3',5'-cyclic-AMP phosphodiesterase 7B (Homo sapiens, UniProt Q9NP56); test: 3H-cAMP and 3H-cGMP Scintillation Proximity Assay (PDE7B)
[13] = target: Glutamate receptor ionotropic, AMPA (Rattus norvegicus) (UniProt P19491+P19492+P19493+P19490); test: Glutamate, AMPA Eurofins Panlabs panel; format: protein-complex assay; details: Compound concentration 10.0 uM
[14] = target: Beta-3 adrenergic receptor (Homo sapiens) (UniProt P13945); test: Adrenergic beta3 Eurofins Panlabs panel; details: concentration not given here
[15] = target: cGMP-dependent 3',5'-cyclic phosphodiesterase (Homo sapiens, UniProt O00408); test: 3H-cAMP and 3H-cGMP Scintillation Proximity Assay (PDE2A)
[16] = target: T1, GABA-A receptor; anion channel (Rattus norvegicus) (UniProt O09028+P15431+P18506+P18508+P19969+P20236+P23574+P23576+P28471+P28473+P30191+P62813+P63079+P63138+Q91ZM7+Q9ES14); test: GABAA, Chloride Channel, TBOB Eurofins Panlabs panel; format: protein-complex assay; details: Compound concentration 10.0 uM
[17] = target: 5-hydroxytryptamine receptor 2B (Homo sapiens) (UniProt P41595); test: Serotonin (5-Hydroxytryptamine) 5-HT2B Eurofins Panlabs panel; details: Compound concentration 10.0 uM
[18] = target: Prostaglandin G/H synthase 1 (Homo sapiens) (UniProt P23219); test: Cyclooxygenase COX-1 Eurofins Panlabs panel; details: Compound concentration 10.0 uM
[19] = target: cAMP and cAMP-inhibited cGMP 3',5'-cyclic phosphodiesterase 10A (Homo sapiens, UniProt Q9Y233); test: 3H-cAMP and 3H-cGMP Scintillation Proximity Assay (PDE10A)
[20] = target: Substance-P receptor (Homo sapiens) (UniProt P25103); test: Tachykinin NK1 Eurofins Panlabs panel; details: Compound concentration 10.0 uM
[21] = target: T1, GABA-A receptor; anion channel (Rattus norvegicus); test: GABAA, Muscimol, Central Eurofins Panlabs panel; format: protein-complex assay; details: Compound concentration 10.0 uM
[22] = target: T2, Alpha-2B adrenergic receptor (Homo sapiens) (UniProt P18089); test: Adrenergic alpha2B Eurofins Panlabs panel; details: Compound concentration 10.0 uM
T2 sequence (whole entry): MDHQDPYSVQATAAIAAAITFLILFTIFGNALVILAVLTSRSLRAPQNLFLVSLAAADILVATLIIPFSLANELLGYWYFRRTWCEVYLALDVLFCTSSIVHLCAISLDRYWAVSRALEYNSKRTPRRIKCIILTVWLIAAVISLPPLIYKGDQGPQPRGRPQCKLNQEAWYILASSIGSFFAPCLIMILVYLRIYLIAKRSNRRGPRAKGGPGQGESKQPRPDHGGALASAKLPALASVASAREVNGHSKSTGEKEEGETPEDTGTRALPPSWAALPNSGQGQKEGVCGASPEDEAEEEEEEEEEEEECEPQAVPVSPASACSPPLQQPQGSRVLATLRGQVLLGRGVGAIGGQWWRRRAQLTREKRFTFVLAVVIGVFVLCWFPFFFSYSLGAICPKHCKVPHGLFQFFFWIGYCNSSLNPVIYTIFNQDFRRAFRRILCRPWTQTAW

[23] = target: Angiotensin-converting enzyme (Oryctolagus cuniculus) (UniProt P12822); test: Peptidase, Angiotensin Converting Enzyme Eurofins Panlabs panel; details: Compound concentration 10.0 uM
[24] = target: Phosphodiesterase 4 (Homo sapiens) (UniProt P27815+Q08499+Q07343+Q08493); test: Phosphodiesterase PDE4 Eurofins Panlabs panel; format: protein assay; details: Compound concentration 10.0 uM
[25] = target: T3, Alpha-2A adrenergic receptor (Homo sapiens) (UniProt P08913); test: Adrenergic alpha2A Eurofins Panlabs panel; details: Compound concentration 10.0 uM
T3 sequence (whole entry): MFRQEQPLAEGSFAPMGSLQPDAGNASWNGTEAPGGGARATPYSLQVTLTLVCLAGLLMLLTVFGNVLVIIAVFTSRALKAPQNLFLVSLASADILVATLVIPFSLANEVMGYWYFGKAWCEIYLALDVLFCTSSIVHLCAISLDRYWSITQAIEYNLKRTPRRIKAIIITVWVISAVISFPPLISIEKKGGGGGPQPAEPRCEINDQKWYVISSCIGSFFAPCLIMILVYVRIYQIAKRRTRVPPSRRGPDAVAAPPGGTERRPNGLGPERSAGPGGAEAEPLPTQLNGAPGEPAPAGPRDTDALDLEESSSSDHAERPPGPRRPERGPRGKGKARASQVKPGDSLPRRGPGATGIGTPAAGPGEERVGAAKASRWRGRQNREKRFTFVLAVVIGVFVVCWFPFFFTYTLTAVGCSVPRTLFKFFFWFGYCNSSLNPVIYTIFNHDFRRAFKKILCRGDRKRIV

[26] = target: Prostaglandin F2-alpha receptor (Homo sapiens) (UniProt P43088); test: Prostanoid FP Eurofins Panlabs panel; details: Compound concentration 10.0 uM
[27] = target: Beta-2 adrenergic receptor (Homo sapiens) (UniProt P07550); test: Adrenergic beta2 Eurofins Panlabs panel; details: Compound concentration 10.0 uM
[28] = target: Nicotinic Acetylcholine Receptor (Homo sapiens) (UniProt P02708+P07510+P11230+P17787+P30926+P32297+P43681+Q07001+Q15822+Q9UGM1+Q15825+P30532+Q04844+P36544+Q9GZZ6+Q05901); test: Nicotinic Acetylcholine Eurofins Panlabs panel; format: protein-complex assay; details: Compound concentration 10.0 uM
[29] = target: Epidermal growth factor receptor (Homo sapiens) (UniProt P00533); test: Protein Tyrosine Kinase, EGF Receptor Eurofins Panlabs panel; details: Compound concentration 10.0 uM
[30] = target: High affinity cGMP-specific 3',5'-cyclic phosphodiesterase 9A (Homo sapiens, UniProt O76083); test: Panlabs assay PDE9A2; parameters: compound concentration 10 uM

cAMP and cAMP-inhibited cGMP 3',5'-cyclic phosphodiesterase 10A, sequence (Q9Y233 whole entry): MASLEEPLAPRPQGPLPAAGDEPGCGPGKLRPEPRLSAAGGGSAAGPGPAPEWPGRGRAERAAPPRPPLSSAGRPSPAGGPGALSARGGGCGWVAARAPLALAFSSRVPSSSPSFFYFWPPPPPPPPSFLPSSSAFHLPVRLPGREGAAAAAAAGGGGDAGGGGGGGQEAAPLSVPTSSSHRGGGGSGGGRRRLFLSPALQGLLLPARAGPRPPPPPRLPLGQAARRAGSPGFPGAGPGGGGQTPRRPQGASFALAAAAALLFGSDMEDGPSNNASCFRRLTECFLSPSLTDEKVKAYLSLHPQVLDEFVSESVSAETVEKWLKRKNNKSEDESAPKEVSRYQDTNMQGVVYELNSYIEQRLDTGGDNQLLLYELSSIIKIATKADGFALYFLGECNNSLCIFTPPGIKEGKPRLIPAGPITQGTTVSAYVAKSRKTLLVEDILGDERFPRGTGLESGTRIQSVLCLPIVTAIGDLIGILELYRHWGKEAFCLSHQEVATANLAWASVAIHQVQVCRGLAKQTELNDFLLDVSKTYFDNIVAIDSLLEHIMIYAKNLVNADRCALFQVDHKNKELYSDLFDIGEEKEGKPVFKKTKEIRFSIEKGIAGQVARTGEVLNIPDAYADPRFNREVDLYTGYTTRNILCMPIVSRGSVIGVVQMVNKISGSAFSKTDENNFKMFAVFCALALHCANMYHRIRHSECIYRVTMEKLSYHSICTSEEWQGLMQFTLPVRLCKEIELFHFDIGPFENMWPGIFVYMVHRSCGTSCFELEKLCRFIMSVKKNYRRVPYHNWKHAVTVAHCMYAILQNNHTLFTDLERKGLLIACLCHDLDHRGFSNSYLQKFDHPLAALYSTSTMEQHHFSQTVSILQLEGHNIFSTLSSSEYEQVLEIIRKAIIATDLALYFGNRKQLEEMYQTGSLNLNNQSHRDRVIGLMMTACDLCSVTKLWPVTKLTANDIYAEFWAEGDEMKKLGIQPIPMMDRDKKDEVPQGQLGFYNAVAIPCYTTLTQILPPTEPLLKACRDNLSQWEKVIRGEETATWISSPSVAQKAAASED
Muscarinic acetylcholine receptor M3 (Homo sapiens), sequence (P20309 whole entry, looked up): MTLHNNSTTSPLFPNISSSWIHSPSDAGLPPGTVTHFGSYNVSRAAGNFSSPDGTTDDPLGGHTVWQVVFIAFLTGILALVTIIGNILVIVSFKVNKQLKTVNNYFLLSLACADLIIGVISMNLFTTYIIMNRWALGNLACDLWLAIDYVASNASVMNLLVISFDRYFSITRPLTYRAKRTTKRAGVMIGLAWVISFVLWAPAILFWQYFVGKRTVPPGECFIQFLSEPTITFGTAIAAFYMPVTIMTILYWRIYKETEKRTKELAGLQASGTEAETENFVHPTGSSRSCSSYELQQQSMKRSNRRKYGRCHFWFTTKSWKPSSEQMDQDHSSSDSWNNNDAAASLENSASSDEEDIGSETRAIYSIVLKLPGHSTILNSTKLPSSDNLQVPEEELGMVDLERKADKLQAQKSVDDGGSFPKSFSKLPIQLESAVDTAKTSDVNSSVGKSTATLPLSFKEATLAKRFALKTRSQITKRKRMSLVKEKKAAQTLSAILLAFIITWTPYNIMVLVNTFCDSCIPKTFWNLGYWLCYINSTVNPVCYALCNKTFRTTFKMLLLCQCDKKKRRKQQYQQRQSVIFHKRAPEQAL
Prostaglandin G/H synthase 1 (Homo sapiens), sequence (P23219 whole entry): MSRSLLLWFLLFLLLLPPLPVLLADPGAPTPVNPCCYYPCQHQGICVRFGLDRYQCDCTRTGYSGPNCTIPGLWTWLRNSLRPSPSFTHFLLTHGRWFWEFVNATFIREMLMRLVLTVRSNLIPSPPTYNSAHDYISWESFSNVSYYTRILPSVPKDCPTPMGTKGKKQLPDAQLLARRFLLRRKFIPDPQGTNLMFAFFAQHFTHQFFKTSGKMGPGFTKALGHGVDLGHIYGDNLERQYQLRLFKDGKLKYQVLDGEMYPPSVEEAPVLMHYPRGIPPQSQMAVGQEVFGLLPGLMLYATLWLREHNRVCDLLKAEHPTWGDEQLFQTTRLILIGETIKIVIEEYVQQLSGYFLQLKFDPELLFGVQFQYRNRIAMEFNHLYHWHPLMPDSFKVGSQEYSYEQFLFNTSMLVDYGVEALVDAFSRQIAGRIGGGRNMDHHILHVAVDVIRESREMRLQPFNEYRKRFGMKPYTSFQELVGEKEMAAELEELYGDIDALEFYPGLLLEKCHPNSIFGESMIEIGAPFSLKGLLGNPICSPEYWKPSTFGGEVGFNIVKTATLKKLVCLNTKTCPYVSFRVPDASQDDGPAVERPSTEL
Monoamine oxidase B (MAO-B), sequence (P27338 whole entry): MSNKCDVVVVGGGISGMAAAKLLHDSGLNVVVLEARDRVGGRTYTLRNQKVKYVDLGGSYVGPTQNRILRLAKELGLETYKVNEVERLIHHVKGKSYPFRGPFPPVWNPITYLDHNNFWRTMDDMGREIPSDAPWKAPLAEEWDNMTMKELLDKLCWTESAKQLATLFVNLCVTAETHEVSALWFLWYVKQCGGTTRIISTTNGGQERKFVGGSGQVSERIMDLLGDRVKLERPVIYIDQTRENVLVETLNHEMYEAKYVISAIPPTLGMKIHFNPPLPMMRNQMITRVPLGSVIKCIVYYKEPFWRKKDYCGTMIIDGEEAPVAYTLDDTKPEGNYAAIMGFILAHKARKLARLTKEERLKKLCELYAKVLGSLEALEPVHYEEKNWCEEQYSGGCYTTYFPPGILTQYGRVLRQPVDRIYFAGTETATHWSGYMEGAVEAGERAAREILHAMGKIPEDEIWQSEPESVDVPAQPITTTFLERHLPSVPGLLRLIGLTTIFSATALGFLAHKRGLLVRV
Prostaglandin F2-alpha receptor (Homo sapiens), sequence (P43088 whole entry): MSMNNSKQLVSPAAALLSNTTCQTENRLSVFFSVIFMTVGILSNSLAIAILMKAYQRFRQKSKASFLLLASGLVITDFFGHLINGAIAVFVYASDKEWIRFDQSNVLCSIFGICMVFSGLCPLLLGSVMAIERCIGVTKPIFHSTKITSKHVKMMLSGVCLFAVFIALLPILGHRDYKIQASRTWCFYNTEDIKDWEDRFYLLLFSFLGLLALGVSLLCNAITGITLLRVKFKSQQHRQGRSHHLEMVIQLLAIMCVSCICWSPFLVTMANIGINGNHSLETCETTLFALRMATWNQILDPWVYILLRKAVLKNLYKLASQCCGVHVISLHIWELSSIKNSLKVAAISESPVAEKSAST
Cannabinoid receptor 2 (Homo sapiens), sequence (P34972 whole entry): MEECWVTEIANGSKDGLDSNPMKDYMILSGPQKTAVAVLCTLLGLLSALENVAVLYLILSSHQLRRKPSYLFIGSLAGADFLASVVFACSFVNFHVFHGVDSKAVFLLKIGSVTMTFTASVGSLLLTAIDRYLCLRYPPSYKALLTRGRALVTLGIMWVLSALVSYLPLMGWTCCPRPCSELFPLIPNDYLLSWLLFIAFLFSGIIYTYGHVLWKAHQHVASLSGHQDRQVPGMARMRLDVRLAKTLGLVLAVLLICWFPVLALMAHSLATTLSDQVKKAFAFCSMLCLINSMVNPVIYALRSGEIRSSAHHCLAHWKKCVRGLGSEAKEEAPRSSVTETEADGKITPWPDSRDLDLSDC
Epidermal growth factor receptor (Homo sapiens), sequence (P00533 whole entry): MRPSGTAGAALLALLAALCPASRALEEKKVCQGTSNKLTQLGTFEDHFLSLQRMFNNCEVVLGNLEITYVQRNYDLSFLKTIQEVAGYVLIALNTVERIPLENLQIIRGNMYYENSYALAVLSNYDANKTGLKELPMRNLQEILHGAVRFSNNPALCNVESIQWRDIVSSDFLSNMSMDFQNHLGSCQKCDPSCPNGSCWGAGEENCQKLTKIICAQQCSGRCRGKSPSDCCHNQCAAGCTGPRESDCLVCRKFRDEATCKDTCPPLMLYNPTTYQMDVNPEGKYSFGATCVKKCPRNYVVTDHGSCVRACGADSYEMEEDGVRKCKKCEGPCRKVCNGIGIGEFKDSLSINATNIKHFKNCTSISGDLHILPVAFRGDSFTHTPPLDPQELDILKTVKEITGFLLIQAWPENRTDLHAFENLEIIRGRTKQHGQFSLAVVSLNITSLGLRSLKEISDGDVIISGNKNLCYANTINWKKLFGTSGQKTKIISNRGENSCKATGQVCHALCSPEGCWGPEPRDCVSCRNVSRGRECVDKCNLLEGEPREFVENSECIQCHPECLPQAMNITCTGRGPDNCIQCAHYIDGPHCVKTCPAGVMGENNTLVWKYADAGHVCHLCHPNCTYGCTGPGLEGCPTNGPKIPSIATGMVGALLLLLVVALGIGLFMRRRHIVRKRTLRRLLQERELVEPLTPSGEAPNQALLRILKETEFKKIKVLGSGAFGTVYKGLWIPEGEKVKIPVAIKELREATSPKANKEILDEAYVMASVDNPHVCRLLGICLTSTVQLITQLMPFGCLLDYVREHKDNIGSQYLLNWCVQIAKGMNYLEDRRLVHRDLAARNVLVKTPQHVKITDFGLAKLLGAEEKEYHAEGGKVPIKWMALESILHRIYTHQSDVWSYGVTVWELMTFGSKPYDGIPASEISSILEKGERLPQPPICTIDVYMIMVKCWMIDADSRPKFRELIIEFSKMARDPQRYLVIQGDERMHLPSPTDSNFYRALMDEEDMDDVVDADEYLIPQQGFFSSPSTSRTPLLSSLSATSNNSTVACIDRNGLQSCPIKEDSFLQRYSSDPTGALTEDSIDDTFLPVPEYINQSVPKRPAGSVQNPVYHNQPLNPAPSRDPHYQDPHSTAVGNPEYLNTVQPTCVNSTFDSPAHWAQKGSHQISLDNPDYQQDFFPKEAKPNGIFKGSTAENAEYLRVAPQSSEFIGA

CCC[C@H]1CNCc2c1[nH]c(=O)c(C#N)c2N1CCC2(CC1)CC2
inhibition at 10 µM [1]: 2%
inhibition [2]: 2%
inhibition [3]: -2%
inhibition [4]: 2%
inhibition [5]: 3.5%
inhibition [6]: -9%
IC50 (Phosphodiesterase 6): 1.56 µM
IC50 [7]: 6.6 µM (not active)
inhibition [8]: -7.5%
inhibition [9]: -2%
inhibition [10]: 4%
inhibition [11]: -1%
IC50 [12]: > 10 µM (not active)
inhibition [13]: -2%
inhibition [14]: 0%
IC50 [15]: > 10 µM (not active)
inhibition [16]: 4%
inhibition [17]: 13%
inhibition [18]: 1%
IC50 [19]: > 10 µM (not active)
inhibition [20]: -7%
inhibition [21]: 25%
inhibition [22]: 7%
inhibition [23]: 4%
inhibition [24]: 58%
inhibition [25]: 28%
inhibition [26]: 13%
inhibition [27]: -6%
inhibition [28]: 5%
inhibition [29]: 9%

CCC[C@@H]1CNCc2c1[nH]c(=O)c(C#N)c2N1CCC2(CC1)CC2
IC50 [30]: 7.47 µM (not active)
